{"source": "patent US20240050408A1", "about": "“USE OF MGLUR5 ANTAGONISTS FOR TREATING AMPHETAMINE ADDICTION” (NOVARTIS AG, priority 2020, published 2024)", "key": {"[1]": {"assay": "Phase 2 trial: safety and adverse events", "format": "in vivo, human", "method": "(§1) This study was conducted in patients with CUD and consisted of about a 21-day screening period followed by a 7-day baseline period, a 98-day outpatient treatment period, and an end of study visit evaluation about 14 days after the last study drug administration ([…]. A). Study treatment was taken twice daily (separated by about 12-hour intervals) with food. For patients in the mavoglurant arm [mavoglurant (free form) provided as modified release formulation (e.g. in WO2014/199316)], an uptitration regimen was performed for 14 days (50 mg b.i.d. from Days 1 to 7 and 100 mg b.i.d from Days 8 to 14) and was followed by 200 mg b.i.d for 84 days.\nData for vital signs, electrocardiogram (ECG) and clinical laboratory evaluations were summarized by treatment and visit/time. Mavoglurant plasma concentrations were recorded at pre-dose and 2 hour (±1 hour) sampling window after the morning dose and summary statistics for concentrations were provided for plasma.\nData for vital signs (BP, pulse rate, body temperature), ECGs, and clinical laboratory evaluations were listed by treatment, subject, visit/time; abnormalities were flagged (if ranges were available).\nThe number and percentage of subjects with AEs are tabulated by body system and PT with a breakdown by treatment. A subject with multiple AEs within body system was only counted once towards the total of this body system and treatment.\nPatient Reported Outcome included: • 1. The TLFB cocaine: is a cocaine assessment method that obtains estimates of daily cocaine intake and has been evaluated with clinical and nonclinical populations. Using a calendar, people provide retrospective estimates of their daily cocaine use over a specified time period that can vary up to 12 months from the interview date. Several memory aids can be used to enhance recall (e.g., calendar; key dates serve as anchors for reporting cocaine use). […] The method is recommended for use when relatively precise estimates of cocaine use are necessary, especially when a complete use pre-posttreatment). Clinically, the TLFB can be used to provide feedback about one's cocaine consumption in an effort to increase a client's motivation to change. • 2. The TLFB alcohol: is a drinking assessment method that obtains estimates of daily drinking and has been evaluated with clinical and nonclinical populations. Using a calendar, people provide retrospective estimates of their daily drinking over a specified time period that can vary up to 12 months from the interview date. Several memory aids can be used to enhance recall (e.g., calendar; key dates serve as anchors for reporting drinking; standard drink conversion). […] The method is recommended for use when relatively precise estimates of drinking are necessary, especially when a complete picture of drinking days (i.e., high- and low-risk days) is needed (evaluating drinking pre/post-treatment). Clinically, the TLFB can be used to provide feedback about one's drinking in an effort to increase a client's motivation to change. Overall, the Alcohol TLFB method provides a relatively accurate portrayal of drinking, and has both clinical and research utility. • 3. The BDI-II: is instrument endorsed by the National Institute for Health and Clinical Excellence for use in primary care in measuring baseline depression severity and responsiveness to treatment. • 4. The STAI: is an assessment tool for measuring the presence and severity of current symptoms of anxiety and a generalized propensity to be anxious. There are 2 subscales within this measure. First, the State Anxiety Scale (S-Anxiety) evaluates the current state of anxiety, asking how respondents feel “right now,” using items that measure subjective feelings of apprehension, tension, nervousness, worry, and activation/arousal of the autonomic nervous system. […]"}, "[2]": {"tested_on": "patients with Cocaine Use Disorder (CUD)", "assay": "Phase 2 trial: quantitative urine measurement of benzoylecgonine (BE)", "format": "in vivo, human", "settings": "98-day administration, P=0.025", "method": "as §1\nThe primary endpoint was the proportion of cocaine use days during the treatment period, assessed by timeline followback [TLFB] cocaine self-report report. The secondary endpoints included a weekly urine analysis for a log-transformed quantitative measure of cocaine metabolite benzoylecgonine (BE), safety assessments (clinical parameters, suicidal ideation, adverse events [AE] and serious adverse events [SAE] at every visit), and pre- and post-dose levels of mavoglurant in the plasma. […]\nTwo urine samples per week provided a log-transformed quantitative measure of BE (cocaine's metabolite). […]"}}, "data": [{"molecule": "COC(=O)N1CC[C@@H]2[C@H]1CCC[C@@]2(O)C#Cc1cccc(C)c1", "note": "[mavoglurant, (-)-(3aR,4S,7aR)-4-Hydroxy-4-m-tolylethynyl-octahydro-indole-1-carboxylic acid methyl ester]", "values": [{"measurement": "overall AE rate vs placebo group", "setting": "[1]; CUD patients, 98-day treatment", "value": "comparable"}, {"measurement": "overall safety and tolerability", "setting": "[1]; CUD patients, 98-day treatment", "value": "safe and well tolerated"}, {"measurement": "rate of psychiatric symptoms vs placebo group", "setting": "[1]; CUD patients, 98-day treatment", "value": "higher rate of psychiatric symptoms"}, {"measurement": "vital signs, ECGs, clinical safety laboratory parameters", "setting": "[1]; CUD patients, 98-day treatment", "value": "no significant findings"}, {"measurement": "overall safety and tolerability", "setting": "[1]; CUD patients, 98-day treatment, listed as Mavoglurant", "value": "safe and well-tolerated"}, {"measurement": "deaths or SAEs", "setting": "[1]; mavoglurant group", "value": "no deaths or SAEs"}, {"measurement": "cocaine consumption as assessed by urine benzoylecgonine (BE) vs placebo", "setting": "[2]", "value": "significantly lower levels of BE in urine"}, {"measurement": "cocaine consumption as assessed by urine benzoylecgonine (BE) vs placebo", "setting": "[2]; listed as Mavoglurant", "value": "significantly reduced cocaine consumption"}]}]}
